Patent publication EP1003557B1, “NEW SALTS WITH BENEFICIAL ORGANOLEPTIC PROPERTIES” (CHINOIN Gyogyszer és Vegyészeti Termékek Gyára RT., priority 1997, dated 1999)
Counter-ions that a name gives are not always drawn.

Test system: Human U937 (cell line) PDE-IV enzime
Assay: Cyclic nucleotide phosphodiesterase (PDE-IV) enzyme inhibition, two-step [3H]cAMP procedure
Format: biochemical
Conditions: [3H]cAMP substrate, 30 °C for 30 min, Tris buffer pH=7.6
Description: Cyclic nucleotide phosphodiesterase activity is measured by a two-step procedure. […] The reaction is initiated by addition of the substrate. […] After cooling the tubes, 50µl of Crotalux atrox (0.5 mg/ml dest. water) is added and the samples are incubated and shaked for 30 min at 37°C. […] The mixture of 500 µl supernatant and 5 ml of liquid scintillation cocktail is measured to determine the amount of formed ^3H adenosine.

Row | Molecule | IC50
1 | CCOc1ccc(C=C2NCCc3cc(OCC)c(OCC)cc32)cc1OCC [Example 2, drotaverin cyclamate] | 1 µM
2 | CCOc1ccc(/C=C2\NCCc3cc(OCC)c(OCC)cc32)cc1OCC [drotaverin hydrochloride, reference compound] | 4.7 µM
3 | drotaverin-saccharimide ethanolate [Example 1] | 3.8 µM
